Where two headings read alike, the source gives them in different places.
C=CS(=O)(=O)CC(C)(C)CCC[C@](C)(c1cccc(C[C@H](C)C(=O)OC)c1)c1nc(-c2cc(Oc3cc4cc[nH]c4c(F)c3F)ccc2F)n(C)n1
ring closure, isolated yield (the molecule shown is the open-chain precursor, cc_pd bond, 20-membered ring, Pd(OAc)2/Cu(OAc)2, DMF/DMSO 9:1, 1.36 mM, 70.0 °C): 20%

O=Cc1c(Oc2ccc(F)c(-c3ncc(C(CCCCCCS(=O)(=O)CC(=O)O)c4cccc(I)c4)[nH]3)c2)c(F)cc2[nH]ccc12 (centres unmarked)
ring closure, isolated yield (the molecule shown is the open-chain precursor, other bond, 19-membered ring, piperidine/AcOH, toluene, 2.7 mM, 100.0 °C): 10%

[2H]C([2H])([2H])n1nc2nc1-c1cc(ccc1F)Oc1c(F)cc3[nH]ccc3c1C=C(C(=O)OCC)S(=O)(=O)CCCCCC2(C)c1cccc(OCC(=O)OCC)c1 (centres unmarked)
ring closure, isolated yield (from [2H]C([2H])([2H])n1nc(C(C)(CCCC(C)(C)CS(=O)(=O)CC(=O)OCC)c2cccc(OCC(=O)OCC)c2)nc1-c1cc(Oc2c(F)cc3[nH]ccc3c2C=O)ccc1F, other bond, 18-membered ring, piperidine/AcOH, toluene, 2.6 mM, 110.0 °C): 52%

Diastereomer 1 of methyl 3-methoxy-2-(3-((R,1^4Z,5E)-2^6,4^6,4^7-trifluoro-1^1,9,9,13-tetramethyl-4^1-(methylsulfonyl)-7,7-dioxido-1^1H,4^1H-3,7-dithia-4(5,4)-indola-1(5,3)-triazola-2(1,3)-benzenacyclotridecaphan-5-en-13-yl)benzyl)propanoate
ring closure, isolated yield (cc_pd bond, 18-membered ring, chloro[(tBu3P)(2-aminobiphenyl-2-yl)Pd(II)]/tBu3P-HBF4/Cy2NMe, toluene, 16.8 mM, 120.0 °C): 68%

methyl (2R)-3-[3-[(14E)-23,29-difluoro-7,11,11-trimethyl-13,13-dioxo-20-(p-tolylsulfonyl)-25-oxa-13 6-thia-5,6,20-triazapentacyclo[24.3.1.02,6.016,24.017,21]triaconta-1(30),2,4,14,16,18,21,23,26,28-decaen-7-yl]phenyl]-2-methyl-propanoate
ring closure, isolated yield (cc_pd bond, 17-membered ring, Pd(PtBu3)2/Et3N, toluene, 0.65 mM, 100.0 °C): 23%

Source: US12649750B2, “Macrocyclic compounds, compositions, and methods of using thereof” (Sionna Therapeutics Inc., priority 2022, dated 2026)
